Test results from patent US20180214519A1, “COMBINATION THERAPIES FOR MODULATION OF HISTONE METHYL MODIFYING ENZYMES” (Constellation Pharmaceuticals, Inc., priority 2015, published 2018).
Where two headings read alike, the source gives them in different places.

Assays:
KARPAS-422 cells = test: Cell viability assay (Cell Titer Glo) in KARPAS-422 cells; assay type: cell-based; details: EZH2 mutant-containing DLBCL cell line KARPAS-422; viability monitored at day 4, day 8 and day 12
Description: For suspension cell lines, cells were seeded at their pre-determined optimal seeding density in a 96 well dish in a volume of 70-90 μl, depending on the number of compounds under investigation in a single assay (i.e. single agent assay versus combination assay). A 10× stock solution of the highest desired concentration of the compound of interest was made in growth media. In parallel, a solution containing the same % of diluent as the 10× compound concentration was made for each compound under investigation, also in growth media. Compound was diluted serially in the diluent/growth media solution, and 10 μl of 10× drug was added to the relevant wells of the 96 well dish containing cells. […] Cells were cultured in the presence of compound for 4 days, at which point 100 μl growth media was added, cells were triturated, and the cell density of the diluent only control treatment was determined. A split ratio was determined based on this density, such that the new cell density of diluent treated cells after splitting would match the original cell density from day 0. […] 50 μl CTG reagent was added to all wells containing cells that remained in the original 96 well dish, followed by a 30 min incubation on an orbital shaker, before a luminescence reading was obtained on a Perkin-Elmer Envision. […]

PC9 cells = test: RNA-sequencing and gene set enrichment analysis in PC9 cells; assay type: cell-based; details: 2.5 μM pre-treatment 8 days then 1 μM erlotinib; compared to DMSO pre-treated/erlotinib acutely treated cells
Excerpt: For RNA sequencing (RNA-seq) experiments, RNA was submitted to Ocean Ridge Biosciences (Palm Beach Gardens, Fla.) for quality control, library preparation and sequencing. Samples were processed as per the vendor's protocols (http://www.oceanridgebio.com/rna-sequencing.html). Data was processed as previously described (ibid).
Experimental gene lists pre-ranked by differential expression were compared against gene sets in the Molecular Signature Database (MSigDB), v4.0 (http://www.broadinstitute.org/gsea/msigdb/index.jsp). GSEA analyses were run using the weighted scoring option, meandiv normalization, and excluding MSigDB gene sets with more than 1500 or fewer than 15 member genes.
For transcriptomic analysis of PC9 cells, cells were pretreated for 8 days with 2.5 μM CPI-360, with one splitting event and reapplication of fresh drug at day 4. On day 8, without splitting, 0.1% (v/v) DMSO or 1 μM erlotinib was added directly to each vessel, mixed, and incubated for 6 or 24 hours before harvesting. Cells were harvested by aspiration of media, and direct application of buffer RLT to the cell culture plate. RNA was purified as described above.
PC9 cells were pre-treated with 2.5 μM Inhbitor 2 or DMSO for 8 days, with splitting, re-seeding and compound re-fresh at day 4. […] RNA was extracted, and analyzed via RNA-sequencing, then gene set enrichment analysis using msigdb v4.0 (all categories). […]

[1] = pre-treatment 4 days, then 1 μM erlotinib, compared to erlotinib only treated cells

Description for PC9 NucRed cells: The non-small cell lung cancer (NSCLC) cell line PC9 was transduced with virus expressing nuclear-restricted RFP (NucRed, Essen Biosciences NucLight), and selected with zeocin (Invivogen). […] Every 3-4 days, media was removed, cells were washed with PBS, and fresh growth media containing 1 μM erlotinib was added. DTPs are defined as cells maintaining red fluorescence, while remaining in a non-proliferative state. After a period of time, DTPs regain proliferative capacity, at which point they are deemed drug tolerant expanded persisters (DTEPs) (ibid). Cells were maintained in 12 well dishes in an Incucyte ZOOM (Essen Biosciences) positioned in a humidified tissue culture incubator for the length of each experiment. Whole well phase and fluorescent images were obtained every 12 hours by the Incucyte ZOOM, and cell number quantified using an automated algorithm defined from a training set of images that identifies red fluorescent signal (positive signal pseudocolored blue in figures). In each experiment, relative cell number is quantitated by dividing cell number at each time point by the initial cell number for each well. In some instances, PC9 NucRed cells were pretreated with EZH2 inhibitors, before counting and reseeding at 5×10^4 cells per well for DTP generation assays as described above.
48 hours later, 1 μM erlotinib was added to the cells, and images were obtained every 12 hours via the Incucyte imaging system. […] FIG. 15c is a schematic of experimental design for FIG. 15d and FIG. 15e PC9 NucRed cells were pre-treated with Inhbitor 1 as in FIG. 15a and FIG. 15b, however after 48 hours, were treated with 0.1% DMSO instead of erlotinib.
Media with fresh compounds was changed every 3-4 days. Phase and fluorescent images obtained every 12 hours with Incucyte imaging platform. Cell number determined by red fluorescent nuclei detection by Incucyte.

CCS(=O)(=O)N1CCC([C@@H](C)n2c(C)c(C(=O)NCc3c(OC)cc(C)[nH]c3=O)c3ccccc32)CC1 [Inhibitor 1]
sensitivity of cell viability to treatment (KARPAS-422 cells): temporal sensitivity
reduction in cell number (PC9 NucRed cells; 5 μM pre-treatment followed by acute 1 μM erlotinib, compared to DMSO pretreatment, acute erlotinib treatment): 80%
reduction in cell number (PC9 NucRed cells; 5 μM pretreatment for 4 days, then acute DMSO treatment, compared to DMSO pretreated cells): 15%
drug tolerant persister (DTP) cells remaining after initial erlotinib treatment (PC9 NucRed cells; [1]): a reduction in the number of drug tolerant persister (DTP) cells
initiation of cell growth inhibition (PC9 NucRed cells; [1]): faster initiation of cell growth inhibition
outgrowth of erlotinib-resistant cells (PC9 NucRed cells; [1]): delayed/reduced outgrowth of erlotinib-resistant cells

COc1cc(C)[nH]c(=O)c1CNC(=O)c1c(C)n([C@H](C)C2CCOCC2)c2ccccc12 [Inhibitor 2]
altered pathways (gene set enrichment analysis) (PC9 cells): 3 out of the top 5 altered pathways are interferon-related pathways

C#Cc1cccc(Nc2ncnc3cc(OCCOC)c(OCCOC)cc23)c1 [erlotinib, reference compound]
GI90 dose (PC9 NucRed cells; PC9 cells): 1000 nM
